Measured values as given in patent US9730931B2, “Pyrimidine FGFR4 inhibitors” (priority 2013, dated 2017).
Read-outs that look alike come from different tables or passages of the source.

System: Hep3B xenograft
Assay type: in vivo

| SMILES | Comparative in vivo efficacy (25, 37.5 or 50 mg/kg i.p. twice daily) | Tolerability (health of animals) (30 mg/kg orally twice daily) | Comparative in vivo efficacy (60 mg/kg orally twice daily) | Tolerability (health of animals) (60 mg/kg orally twice daily) |
| --- | --- | --- | --- | --- |
| C=CC(=O)Nc1cc(N2CCN(CC)CC2)ccc1Nc1cc(N(C)C(=O)Nc2c(Cl)c(OC)cc(OC)c2Cl)ncn1 [Example 108, N-(2-(6-(3-(2,6-Dichloro-3,5-dimethoxyphenyl)-1-methylureido)-pyrimidin-4-ylamino)-5-(4-ethylpiperazin-1-yl)-phenyl)-acrylamide] | more efficacious than BGJ398 at tolerable dosage levels | – | – | – |
| CCN1CCN(c2ccc(Nc3cc(N(C)C(=O)Nc4c(Cl)c(OC)cc(OC)c4Cl)ncn3)cc2)CC1 [BGJ398] | – | did not exhibit poor health | efficacy comparable to compound 108 | terminated on Day 11 due to poor health of animals |
